Measured values taken from the supplement of paper PMC12420376.

Tests used:
[1] = tested on: KURAMOCHI; assay: drug sensitivity score (DSS2) on cancer cell count; higher = more sensitive; extreme values may be limits of the assay; settings: 72 h
Method in brief: (§1)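 Screen quality was checked by Z', and a drug sensitivity score was derived in Breeze from logistic fits of the cancer cell counts. These counts were obtained by imaging at 10× (4 fields) after fixing and immunostaining for CK8/18 with Hoechst. Before that, ovarian cancer cells, alone or in 1:1 direct co-culture with lung or skin fibroblasts, had been treated for 72 h on 384-well plates acoustically pre-spotted with 528 approved and investigational compounds at 5 concentrations.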

[2] = tested on: OVCAR8; assay: as above; settings: 72 h
Method in brief: as §1

[3] = co-cultured fibroblast: BJHTERT
[4] = co-cultured fibroblast: none (monoculture)

SMILES | drug sensitivity score [1, 3] [DSS] | drug sensitivity score ([1]; co-cultured fibroblast: WI38) [DSS] | drug sensitivity score [1, 4] [DSS] | drug sensitivity score [2, 3] [DSS] | drug sensitivity score ([2]; co-cultured fibroblast: WI38) [DSS] | drug sensitivity score [2, 4] [DSS]
CNc1nc(Nc2cn(C(C)(C)C#N)nc2C)ncc1C(F)(F)F [GNE-0877] | 0 | 0 | 0 | 0 | 1.8 | 0
CCNc1nc(Nc2cc(F)c(C(=O)N3CCOCC3)cc2OC)ncc1C(F)(F)F [GNE-7915] | 0 | 0 | 0 | 0 | 0 | 0
CCCc1cc(C)[nH]c(=O)c1CNC(=O)c1cc(-c2ccnc(N3CCN(C)CC3)c2)cc2c1cnn2C(C)C [GSK343] | 0 | 0 | 0 | 1 | 0 | 0
CCCOc1ccn2c(C(C)=O)cc(-c3ccccc3S(C)(=O)=O)c2c1 [GSK2801] | 0 | 0 | 0.9 | 0 | 0 | 0
CCOC(=O)CCNc1cc(N2CCc3ccccc3CC2)nc(-c2ccccn2)n1 [GSK-J4] | 3.1 | 2.7 | 10.5 | 1.6 | 0.3 | 4.2
C[C@@H]1C=C2C(=O)O[C@@H]3CC[C@H](C1)[C@]23O [Galiellalactone] | 6.9 | 8.2 | 3.5 | 0 | 3.9 | 0
Cc1cccc(-c2nn3c(c2-c2ccnc4ccc(C(N)=O)cc24)CCC3)n1 [Galunisertib] | 3.4 | 0 | 13.8 | 0 | 0 | 0
Cc1cc(Nc2cc(CN3CCOCC3)c3nc(C)c(Cc4ccc(Cl)cc4F)n3n2)n[nH]1 [Gandotinib] | 7.6 | 3.7 | 4 | 9 | 12.1 | 9.7
CC(C)c1cc(-c2n[nH]c(=O)n2-c2ccc3c(ccn3C)c2)c(O)cc1O [Ganetespib] | 14.8 | 17.1 | 21 | 22.3 | 22.9 | 27.1
CN(C)C1CCN(C(=O)c2ccc(NC(=O)Nc3ccc(-c4nc(N5CCOCC5)nc(N5CCOCC5)n4)cc3)cc2)CC1 [Gedatolisib] | 16.8 | 16 | 21.3 | 8.7 | 2 | 8.2
COc1cc2ncnc(Nc3ccc(F)c(Cl)c3)c2cc1OCCCN1CCOCC1 [Gefitinib] | 2.9 | 3 | 0 | 5.8 | 0 | 3.7
Nc1ccn([C@@H]2O[C@H](CO)[C@@H](O)C2(F)F)c(=O)n1 [Gemcitabine] | 18.4 | 25.2 | 26.7 | 29.5 | 27.2 | 26.3
CCc1nc(C(N)=O)c(Nc2ccc(N3CCC(N4CCN(C)CC4)CC3)c(OC)c2)nc1NC1CCOCC1 [Gilteritinib] | 0.4 | 0 | 0 | 1.5 | 0 | 0
CCN(CC)Cc1ccc2cc(COC(=O)Nc3ccc(C(=O)NO)cc3)ccc2c1 [Givinostat] | 8.6 | 7.4 | 6.1 | 14.9 | 8.5 | 8.8
CN1CC[C@@H](NC(=O)Nc2ccc(C#N)cc2)C[C@@H]1c1nc2ccccc2[nH]1 [Glasdegib] | 0.5 | 1.1 | 0 | 0 | 0 | 0
COCCNCc1ccc(-c2cc3nccc(Oc4ccc(NC(=S)NC(=O)Cc5ccc(F)cc5)cc4F)c3s2)nc1 [Glesatinib] | 2.7 | 1.6 | 2.3 | 0 | 3.5 | 0
CN1CCN(C2CCN(C(=O)Nc3cc(Oc4ccc(NC(=O)C5(C(=O)Nc6ccc(F)cc6)CC5)c(F)c4)ccn3)CC2)CC1 [Golvatinib] | 0 | 0 | 0 | 0 | 0 | 0
CC(C)C[C@H](NC(=O)[C@@H](COC(C)(C)C)NC(=O)[C@H](Cc1ccc(O)cc1)NC(=O)[C@H](CO)NC(=O)[C@H](Cc1c[nH]c2ccccc12)NC(=O)[C@H](Cc1cnc[nH]1)NC(=O)[C@@H]1CCC(=O)N1)C(=O)N[C@@H](CCCNC(=N)N)C(=O)N1CCC[C@H]1C(=O)NNC(N)=O [Goserelin] | 0 | 0 | 0 | 0 | 0 | 0
O=S(=O)(c1cccc2c(O)nccc12)N1CCCNCC1 [Hydroxyfasudil] | 0 | 1 | 2 | 0 | 1.2 | 0
NC(=O)NO [Hydroxyurea] | 5.9 | 7.3 | 6.3 | 1.8 | 7.3 | 7.7

SMILES | drug sensitivity score [1, 3] [DSS] | drug sensitivity score ([1]; co-cultured fibroblast: WI38) [DSS] | drug sensitivity score [1, 4] [DSS] | drug sensitivity score [2, 3] [DSS] | drug sensitivity score ([2]; co-cultured fibroblast: WI38) [DSS] | drug sensitivity score [2, 4] [DSS]
COc1cc2c(cc1-c1c(C)noc1C)ncc1[nH]c(=O)n([C@H](C)c3ccccn3)c12 [I-BET151] | 9.5 | 9.4 | 6.3 | 14.1 | 4 | 15.9
O=C(O)c1ccc(O)c2ncccc12 [IOX-1] | 3.6 | 5.9 | 5.5 | 3.4 | 0.7 | 4.8
O=C(O)CNC(=O)c1c(O)c2ccccc2n(Cc2ccccc2)c1=O [IOX-2] | 0.4 | 0 | 1.3 | 0 | 0 | 0.5
C=CC(=O)N1CCC[C@@H](n2nc(-c3ccc(Oc4ccccc4)cc3)c3c(N)ncnc32)C1 [Ibrutinib] | 3.1 | 3 | 0 | 1.1 | 0 | 0
C#Cc1cccc(Nc2ncnc3cc4c(cc23)OCCOCCOCCO4)c1 [Icotinib] | 0 | 0.2 | 9.7 | 0.1 | 0 | 0
CC(=O)[C@]1(O)Cc2c(O)c3c(c(O)c2[C@@H](O[C@H]2C[C@H](N)[C@H](O)[C@H](C)O2)C1)C(=O)c1ccccc1C3=O [Idarubicin] | 14.5 | 14.4 | 27.8 | 17.6 | 19.3 | 22.1
COc1cc(C(=O)O)ccc1NC(=O)[C@@H]1N[C@@H](CC(C)(C)C)[C@](C#N)(c2ccc(Cl)cc2F)[C@H]1c1cccc(Cl)c1F [Idasanutlin] | 0 | 1.1 | 0 | 1.3 | 4.2 | 0
CC[C@H](Nc1ncnc2[nH]cnc12)c1nc2cccc(F)c2c(=O)n1-c1ccccc1 [Idelalisib] | 10.9 | 5.5 | 3.9 | 2.9 | 0 | 0.3
CC(C)Cn1cnc2c(N)nc3ccccc3c21 [Imiquimod] | 0 | 0.1 | 13.4 | 0.4 | 0 | 2.8
O=C(Nc1ccncc1)C(=O)c1cn(Cc2ccc(Cl)cc2)c2ccccc12 [Indibulin] | 13.1 | 17.2 | 19.5 | 11 | 26.6 | 21.2
CCN1CCN(c2ccc(Nc3cc(N(C)C(=O)Nc4c(Cl)c(OC)cc(OC)c4Cl)ncn3)cc2)CC1 [Infigratinib] | 0 | 0 | 0 | 0 | 0 | 0
CC(C)NC[C@@H](C(=O)N1CCN(c2ncnc3c2[C@H](C)C[C@H]3O)CC1)c1ccc(Cl)cc1 [Ipatasertib] | 1.5 | 0.5 | 0 | 1.9 | 0 | 1.9
CCC(C)n1ncn(-c2ccc(N3CCN(c4ccc(OCC5COC(Cn6cncn6)(c6ccc(Cl)cc6Cl)O5)cc4)CC3)cc2)c1=O (centres undefined) [Itraconazole] | 0 | 0 | 0 | 1 | 11.5 | 0.1
N#Cc1ccnc(N2C(=O)CC[C@H]2C(=O)N(c2cncc(F)c2)[C@H](C(=O)NC2CC(F)(F)C2)c2ccccc2Cl)c1 [Ivosidenib] | 0 | 0 | 0 | 2.1 | 0.3 | 0.2
C/C(=C\c1csc(C)n1)[C@@H]1C[C@@H]2O[C@]2(C)CCC[C@H](C)[C@H](O)[C@@H](C)C(=O)C(C)(C)[C@@H](O)CC(=O)N1 [Ixabepilone] | 4.9 | 4.6 | 0.8 | 5.8 | 5.6 | 3.6
CC(C)C[C@H](NC(=O)CNC(=O)c1cc(Cl)ccc1Cl)B(O)O [Ixazomib] | 1 | 11.6 | 7.6 | 1.8 | 8.7 | 11.3
CC(C)NC(=O)COc1cccc(-c2nc(Nc3ccc4[nH]ncc4c3)c3ccccc3n2)c1 [KD025] | 1.2 | 1.3 | 0 | 5 | 8.3 | 0.3
CS(=O)(=O)CCNCc1ccc(-c2ccc3ncnc(Nc4ccc(OCc5cccc(F)c5)c(Cl)c4)c3c2)o1 [Lapatinib] | 9.2 | 6.8 | 0 | 0.7 | 0 | 0
O=C(Nc1cnn2ccc(N3CCC[C@@H]3c3cc(F)ccc3F)nc12)N1CC[C@H](O)C1 [Larotrectinib] | 0 | 0 | 0 | 0.2 | 1.6 | 0
